ChEMBL document CHEMBL1201862, “PubChem BioAssay data set” (2004)
Active and inactive are the calls of the source.

What was measured:
[1] = Luminescence Cell-Based Dose Retest to Confirm Inhibitors of Cancer Stem Cells. [Related pubchem assays (depositor defined):AID2717, AID2721]; assay type: functional; details: Homo sapiens
[2] = target: Heat shock protein HSP 90-alpha (Homo sapiens, UniProt P07900); assay type: functional, organism-based
[3] = target: T1, Short transient receptor potential channel 4 (Mus musculus, UniProt Q9QUQ5); assay: calcium entry via TRPC4 opening agents – cell-based, HEK293 TRPC4/mu-opioid, Fluo-4 calcium, dose response (AID 434937); assay type: functional
T1 sequence (Q9QUQ5 whole entry): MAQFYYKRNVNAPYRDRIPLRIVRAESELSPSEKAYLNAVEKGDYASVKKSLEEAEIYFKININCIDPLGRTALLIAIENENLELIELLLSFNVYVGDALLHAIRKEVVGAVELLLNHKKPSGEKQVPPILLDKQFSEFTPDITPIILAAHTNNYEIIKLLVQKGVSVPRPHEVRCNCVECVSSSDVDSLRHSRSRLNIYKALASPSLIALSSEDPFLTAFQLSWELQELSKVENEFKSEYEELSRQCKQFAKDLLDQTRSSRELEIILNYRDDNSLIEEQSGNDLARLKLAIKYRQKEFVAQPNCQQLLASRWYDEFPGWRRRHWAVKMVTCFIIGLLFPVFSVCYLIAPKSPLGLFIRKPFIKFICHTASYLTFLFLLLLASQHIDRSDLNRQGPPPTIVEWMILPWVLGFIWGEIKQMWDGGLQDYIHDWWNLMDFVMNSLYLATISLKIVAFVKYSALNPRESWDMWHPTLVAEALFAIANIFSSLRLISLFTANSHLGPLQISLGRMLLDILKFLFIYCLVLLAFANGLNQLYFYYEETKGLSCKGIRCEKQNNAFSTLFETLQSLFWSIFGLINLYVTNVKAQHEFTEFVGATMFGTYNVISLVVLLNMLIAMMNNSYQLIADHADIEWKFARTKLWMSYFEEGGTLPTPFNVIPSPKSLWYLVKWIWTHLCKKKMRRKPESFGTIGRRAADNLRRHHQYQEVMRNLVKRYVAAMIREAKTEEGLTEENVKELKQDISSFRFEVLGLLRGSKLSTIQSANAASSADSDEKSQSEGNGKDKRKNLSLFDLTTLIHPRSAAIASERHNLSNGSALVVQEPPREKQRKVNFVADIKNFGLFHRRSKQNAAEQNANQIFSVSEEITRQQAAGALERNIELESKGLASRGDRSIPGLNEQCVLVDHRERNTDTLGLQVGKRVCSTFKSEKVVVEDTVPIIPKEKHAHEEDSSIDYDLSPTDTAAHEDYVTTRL

[4] = target: DNA dC->dU-editing enzyme APOBEC-3A (Homo sapiens, UniProt P31941); assay: A3A deaminase inhibition for selectivity – biochemical, dose response (AID 504722); assay type: functional
Sequence of DNA dC->dU-editing enzyme APOBEC-3A (P31941 whole entry): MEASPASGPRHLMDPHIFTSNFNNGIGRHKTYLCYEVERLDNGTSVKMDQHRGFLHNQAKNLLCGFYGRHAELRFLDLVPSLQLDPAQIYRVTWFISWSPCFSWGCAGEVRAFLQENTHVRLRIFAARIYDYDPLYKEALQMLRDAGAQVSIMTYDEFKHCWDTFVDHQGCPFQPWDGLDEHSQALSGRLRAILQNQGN

[5] = target: DNA dC->dU-editing enzyme APOBEC-3G (Homo sapiens, UniProt Q9HC16); assay: Dose Response confirmation of small molecule APOBEC3G DNA Deaminase Inhibitors via a fluorescence-based single-stranded DNA deaminase assay. [Related pubchem assays (depositor defined):AID493012, AID493028]; assay type: functional
Sequence of DNA dC->dU-editing enzyme APOBEC-3G (Q9HC16 whole entry): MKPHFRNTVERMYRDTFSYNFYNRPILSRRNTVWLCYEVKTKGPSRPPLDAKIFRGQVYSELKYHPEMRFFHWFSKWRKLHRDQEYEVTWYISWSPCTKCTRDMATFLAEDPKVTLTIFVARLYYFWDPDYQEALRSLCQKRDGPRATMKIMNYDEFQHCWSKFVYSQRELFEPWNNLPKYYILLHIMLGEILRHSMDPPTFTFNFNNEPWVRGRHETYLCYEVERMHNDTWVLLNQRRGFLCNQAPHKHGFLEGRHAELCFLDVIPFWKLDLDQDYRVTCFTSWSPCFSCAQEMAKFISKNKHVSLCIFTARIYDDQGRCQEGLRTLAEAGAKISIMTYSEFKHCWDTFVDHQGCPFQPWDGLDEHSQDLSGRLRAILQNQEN

[6] = target: Beta-2 adrenergic receptor (Homo sapiens, UniProt P07550); assay: ADRB2 activation measured by internalization – cell-based, FAP fluorogen, flow cytometry, cherry pick 1, dose response (AID 588763); assay type: functional
Sequence of Beta-2 adrenergic receptor (P07550 whole entry): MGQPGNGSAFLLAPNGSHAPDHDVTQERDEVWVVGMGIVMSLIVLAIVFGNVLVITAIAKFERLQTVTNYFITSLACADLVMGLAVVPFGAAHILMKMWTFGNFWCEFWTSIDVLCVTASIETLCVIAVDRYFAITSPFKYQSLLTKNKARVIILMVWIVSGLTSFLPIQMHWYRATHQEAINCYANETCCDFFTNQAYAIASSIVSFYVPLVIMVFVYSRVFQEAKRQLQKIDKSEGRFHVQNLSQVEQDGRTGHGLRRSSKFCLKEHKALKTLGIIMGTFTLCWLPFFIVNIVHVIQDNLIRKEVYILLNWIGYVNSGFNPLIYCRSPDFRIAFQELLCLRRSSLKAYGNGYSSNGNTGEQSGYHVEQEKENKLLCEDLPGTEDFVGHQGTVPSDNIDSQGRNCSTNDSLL

[7] = HEK-293T viability loss after treatment – luminescence, T-cell screen hits, cytotoxicity control for TCR NF-kB inhibitor project, dose response (AID 489026); assay type: functional, cell-based;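 also: cells exposed to compound about 14 hours before the viability readout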
[8] = target: T2, Ubiquitin-conjugating enzyme E2 N (Homo sapiens, UniProt P61088); assay type: functional;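 also: Dose-response confirmation in a TR-FRET assay detecting UBC13-driven polyubiquitin chain formation, inhibition measured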
T2 sequence (P61088 whole entry): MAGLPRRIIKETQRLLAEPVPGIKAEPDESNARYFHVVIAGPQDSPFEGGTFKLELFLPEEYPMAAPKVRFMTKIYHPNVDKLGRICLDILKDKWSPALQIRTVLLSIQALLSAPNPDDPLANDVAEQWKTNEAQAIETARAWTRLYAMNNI

[9] = target: Genome polyprotein (dengue virus type 2, UniProt P29990); assay: flavivirus cap methylation enzyme inhibition – biochemical, confirmation dose response, primary screen (AID 588689); assay type: functional
Sequence of Genome polyprotein (P29990 2492-3391 limits assumed): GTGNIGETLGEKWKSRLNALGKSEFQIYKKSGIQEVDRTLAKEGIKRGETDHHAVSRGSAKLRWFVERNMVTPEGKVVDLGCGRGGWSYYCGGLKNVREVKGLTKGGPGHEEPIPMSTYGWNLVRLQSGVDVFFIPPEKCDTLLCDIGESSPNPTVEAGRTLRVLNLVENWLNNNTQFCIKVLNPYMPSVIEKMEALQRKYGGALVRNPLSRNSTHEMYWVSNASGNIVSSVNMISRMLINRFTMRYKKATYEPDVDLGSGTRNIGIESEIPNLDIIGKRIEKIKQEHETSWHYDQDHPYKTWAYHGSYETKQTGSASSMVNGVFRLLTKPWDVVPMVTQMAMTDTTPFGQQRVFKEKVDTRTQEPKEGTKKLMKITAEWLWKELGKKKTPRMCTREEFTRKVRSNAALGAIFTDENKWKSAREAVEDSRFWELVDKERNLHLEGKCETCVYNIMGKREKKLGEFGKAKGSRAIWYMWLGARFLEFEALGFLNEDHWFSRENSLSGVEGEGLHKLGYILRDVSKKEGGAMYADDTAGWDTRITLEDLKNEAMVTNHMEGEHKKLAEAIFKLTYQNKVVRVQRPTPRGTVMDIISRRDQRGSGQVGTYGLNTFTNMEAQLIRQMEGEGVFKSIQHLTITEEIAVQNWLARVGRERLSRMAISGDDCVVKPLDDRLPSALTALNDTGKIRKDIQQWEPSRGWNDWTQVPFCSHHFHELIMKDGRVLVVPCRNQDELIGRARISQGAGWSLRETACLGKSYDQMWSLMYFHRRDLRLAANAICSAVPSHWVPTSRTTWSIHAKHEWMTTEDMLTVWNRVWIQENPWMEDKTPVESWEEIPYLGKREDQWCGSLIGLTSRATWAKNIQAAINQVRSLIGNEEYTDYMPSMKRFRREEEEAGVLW

[10] = target: T3, Aminopeptidase N (Plasmodium falciparum FcB1/Columbia, UniProt O96935); assay: malaria alanyl aminopeptidase activity blockers – biochemical, fluorogenic H-Leu-NHMec substrate, 1536-well (AID 1445); design: species or system Plasmodium falciparum 3D7, 3D7
T3 sequence (O96935 whole entry): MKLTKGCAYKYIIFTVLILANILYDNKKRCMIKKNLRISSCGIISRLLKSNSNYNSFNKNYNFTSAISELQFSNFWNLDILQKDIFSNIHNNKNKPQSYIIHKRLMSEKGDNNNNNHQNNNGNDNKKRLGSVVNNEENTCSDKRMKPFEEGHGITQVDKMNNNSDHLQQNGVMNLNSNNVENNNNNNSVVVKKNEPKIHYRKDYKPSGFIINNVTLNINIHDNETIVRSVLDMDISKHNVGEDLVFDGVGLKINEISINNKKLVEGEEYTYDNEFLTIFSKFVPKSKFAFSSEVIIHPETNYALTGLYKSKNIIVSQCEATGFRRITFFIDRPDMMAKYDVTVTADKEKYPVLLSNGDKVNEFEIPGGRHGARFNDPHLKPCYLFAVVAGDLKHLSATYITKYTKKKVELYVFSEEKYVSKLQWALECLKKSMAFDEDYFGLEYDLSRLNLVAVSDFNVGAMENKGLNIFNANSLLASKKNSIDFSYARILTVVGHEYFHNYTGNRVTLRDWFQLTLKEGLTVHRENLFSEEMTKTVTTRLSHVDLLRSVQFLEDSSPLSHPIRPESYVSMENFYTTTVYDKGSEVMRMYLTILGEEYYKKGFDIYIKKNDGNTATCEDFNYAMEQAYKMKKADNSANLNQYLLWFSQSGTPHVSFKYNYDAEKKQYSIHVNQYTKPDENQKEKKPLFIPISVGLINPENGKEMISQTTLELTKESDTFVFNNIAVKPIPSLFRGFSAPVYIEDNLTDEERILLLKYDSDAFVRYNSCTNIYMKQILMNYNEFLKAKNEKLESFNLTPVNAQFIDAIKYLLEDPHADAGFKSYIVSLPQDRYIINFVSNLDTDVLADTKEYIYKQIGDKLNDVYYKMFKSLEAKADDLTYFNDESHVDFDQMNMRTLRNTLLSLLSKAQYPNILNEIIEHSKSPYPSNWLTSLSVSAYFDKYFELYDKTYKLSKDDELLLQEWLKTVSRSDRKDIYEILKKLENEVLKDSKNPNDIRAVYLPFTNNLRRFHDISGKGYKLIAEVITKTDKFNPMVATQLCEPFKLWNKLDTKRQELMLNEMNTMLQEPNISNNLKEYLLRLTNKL

[11] = target: T4, Rac GTPase-activating protein 1 (Homo sapiens, UniProt Q9H0H5); assay: blockers of MgcRacGAP-driven Rac1 GTP hydrolysis – biochemical, ADP Hunter fluorescence, primary and confirmatory, confirmation (AID 624330); assay type: functional
T4 sequence (Q9H0H5 whole entry): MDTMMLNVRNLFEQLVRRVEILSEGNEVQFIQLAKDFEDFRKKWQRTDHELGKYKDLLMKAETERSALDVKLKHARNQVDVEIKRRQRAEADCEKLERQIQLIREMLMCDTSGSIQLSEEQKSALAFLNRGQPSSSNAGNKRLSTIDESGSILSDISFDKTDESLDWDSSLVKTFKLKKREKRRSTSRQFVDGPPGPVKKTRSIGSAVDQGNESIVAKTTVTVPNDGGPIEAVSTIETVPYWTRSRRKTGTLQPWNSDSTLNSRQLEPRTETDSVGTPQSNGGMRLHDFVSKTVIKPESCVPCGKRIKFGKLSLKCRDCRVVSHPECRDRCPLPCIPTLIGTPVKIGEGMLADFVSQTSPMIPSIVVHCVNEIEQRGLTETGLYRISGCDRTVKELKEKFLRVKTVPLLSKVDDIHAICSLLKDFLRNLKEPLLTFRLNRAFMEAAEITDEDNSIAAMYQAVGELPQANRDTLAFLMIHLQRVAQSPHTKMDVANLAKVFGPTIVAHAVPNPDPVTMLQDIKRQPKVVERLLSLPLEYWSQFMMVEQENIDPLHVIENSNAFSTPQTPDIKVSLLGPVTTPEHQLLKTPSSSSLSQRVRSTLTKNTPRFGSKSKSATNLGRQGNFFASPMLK

[12] = THP-1 cell cytotoxicity, dose response, cytotoxicity control for non-replicating M. tuberculosis project (AID 489025); assay type: functional
[13] = Vero E6 cell cytotoxicity, dose response, cytotoxicity control for non-replicating M. tuberculosis project, secondary assay (AID 492998); assay type: functional, VeroE6; details: Vero C1008
[14] = cells; assay type: functional
[15] = microbe, parasite or virus in culture; assay type: functional; details: Mycobacterium tuberculosis
[16] = target: T5, Leucine aminopeptidase (Plasmodium falciparum 3D7, UniProt Q8IL11); assay: P. falciparum M17LAP inhibitors, primary screen, biochemical, fluorogenic H-Leu-NHMec substrate, 1536-well (AID 1619); assay type: functional
T5 sequence (Q8IL11 whole entry): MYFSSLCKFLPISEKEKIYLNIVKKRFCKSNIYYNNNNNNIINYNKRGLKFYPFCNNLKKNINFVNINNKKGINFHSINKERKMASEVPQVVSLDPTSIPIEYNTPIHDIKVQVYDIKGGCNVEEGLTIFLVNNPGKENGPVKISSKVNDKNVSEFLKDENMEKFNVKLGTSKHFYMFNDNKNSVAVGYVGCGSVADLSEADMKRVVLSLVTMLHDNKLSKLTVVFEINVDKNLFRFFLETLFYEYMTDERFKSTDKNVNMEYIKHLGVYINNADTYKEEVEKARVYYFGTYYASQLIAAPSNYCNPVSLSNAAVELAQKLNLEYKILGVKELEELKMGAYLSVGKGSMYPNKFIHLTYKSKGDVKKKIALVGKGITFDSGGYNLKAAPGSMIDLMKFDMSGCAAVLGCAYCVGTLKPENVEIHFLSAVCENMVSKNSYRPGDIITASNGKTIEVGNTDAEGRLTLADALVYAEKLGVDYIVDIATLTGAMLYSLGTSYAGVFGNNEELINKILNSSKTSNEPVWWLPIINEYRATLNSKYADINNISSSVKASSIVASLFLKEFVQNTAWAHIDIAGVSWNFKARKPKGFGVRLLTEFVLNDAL

[17] = target: Large T antigen (Simian virus 40, UniProt P03070); assay type: functional, Betapolyomavirus macacae;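 also: Confirmatory-stage PubChem screen for compounds that inhibit SV40 T antigen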
Sequence of Large T antigen (P03070 whole entry): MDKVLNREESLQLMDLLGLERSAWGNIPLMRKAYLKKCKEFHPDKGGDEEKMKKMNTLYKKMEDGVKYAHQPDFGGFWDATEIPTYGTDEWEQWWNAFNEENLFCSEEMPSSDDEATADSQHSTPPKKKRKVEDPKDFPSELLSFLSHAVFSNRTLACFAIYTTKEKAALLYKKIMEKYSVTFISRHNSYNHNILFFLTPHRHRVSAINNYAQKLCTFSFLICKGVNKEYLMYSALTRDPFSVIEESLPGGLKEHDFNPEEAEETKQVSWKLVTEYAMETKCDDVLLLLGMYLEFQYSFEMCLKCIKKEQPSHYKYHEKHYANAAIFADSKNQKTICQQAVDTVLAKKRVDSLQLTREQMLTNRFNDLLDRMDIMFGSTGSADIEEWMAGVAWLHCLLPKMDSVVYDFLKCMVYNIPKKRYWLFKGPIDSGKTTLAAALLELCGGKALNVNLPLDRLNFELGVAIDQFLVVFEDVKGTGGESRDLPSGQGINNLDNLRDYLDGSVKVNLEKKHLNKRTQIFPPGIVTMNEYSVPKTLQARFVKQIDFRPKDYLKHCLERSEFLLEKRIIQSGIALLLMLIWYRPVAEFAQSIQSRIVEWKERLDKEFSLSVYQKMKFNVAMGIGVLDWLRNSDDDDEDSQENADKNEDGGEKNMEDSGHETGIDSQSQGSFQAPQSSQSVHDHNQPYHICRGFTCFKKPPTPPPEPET

## Cn1cncc1C#Cc1c(-c2ccsc2)sc2ccccc12
[1]
  AC50: 4.68 µM (active)
[2]
  AC50: 7.16 µM (active)

## O=C(c1sc2ccccc2c1Cl)N(Cc1cccs1)C1CCS(=O)(=O)C1 (stereo not given)
[3]
  EC50: 1.88 µM (active)

## CN(C)c1ccc(/C=N/n2c(S)nnc2-c2cccnc2)cc1
[4]
  IC50: > 100 µM (inactive)
[5]
  IC50: 2.56 µM (active)

## Cn1c(S)nnc1-c1cc2c(C(F)(F)F)nn(C)c2s1
[4]
  IC50: > 100 µM (inactive)
[5]
  IC50: 1.84 µM (active)

## CN(CC(=O)Nc1cccc(F)c1)C(=O)c1cn(-c2ccccc2)nc1-c1ccc(Cl)cc1
[1]
  AC50: 2.93 µM (active)
[2]
  AC50: 8.31 µM (active)

## c1nc(NCCN2CCOCC2)c2sc3nc(N4CCOCC4)c4c(c3c2n1)CCC4
[6]
  EC50: 3.34 µM (active)

## C/C=C(\C)C(=O)N[C@@H](c1ccccc1)[C@@H](O)C(=O)O[C@H]1C[C@@]2(O)[C@@H](OC(=O)c3ccccc3)C3[C@](C)(C(=O)[C@H](O)C(=C1C)C2(C)C)[C@@H](O)C[C@H]1OC[C@@]31OC(C)=O (stereo not given in full)
[7]
  IC50: > 80 µM (inactive)

## O=C(OCc1cccc([N+](=O)[O-])c1)c1cccnc1Cl
[8]
  IC50: > 20 µM (inactive)

## CN(C)c1ccc(C=C2C(=O)NC(=O)NC2=O)cc1[N+](=O)[O-]
[9]
  IC50: 16.3 µM (active)

## CC[C@@H](C)[C@@H]1CN([C@@H](C)CN2CCC[C@H]2CN2C(N)=NC[C@@H]2Cc2ccccc2)C(=N)N1CCCC1CCCC1
[8]
  IC50: > 20 µM (inactive)

## CCc1ccc2nc(SCC(=O)Nc3ccccc3N3CCOCC3)c(C#N)cc2c1
[1]
  AC50: 2.39 µM (active)
[7]
  IC50: > 80 µM (inactive)

## Cc1ccc2c(c1)c1nnc(SCC(=O)N3CCCc4ccccc43)nc1n2CC(=O)O
[10]
  IC50: 26.8 µM (active)

## COC(=O)c1[nH]c2ccc(F)cc2c1NS(=O)(=O)c1ccc(OC)cc1
[7]
  IC50: > 80 µM (inactive)

## COC(=O)NCC(c1ccc2c(c1)OCO2)N1CCN(c2ccc(OC)cc2)CC1 (stereo not given)
[3]
  EC50: 0.944 µM (active)
[11]
  IC50: 123 µM (active)

## O=C(NCc1cccs1)C1CCN(S(=O)(=O)c2cccs2)CC1
[10]
  IC50: 51.9 µM (active)

## O=C(Nc1ccccc1)c1ccccc1CCc1ccccc1
[6]
  EC50: 1.7 µM (active)

## CCOC(=O)c1sc2nc(CSc3ccccc3)nc(NCCN(C)C)c2c1C
[12]
  CC50: 31.2 µM (active)
[13]
  CC50: 17.8 µM (active)
[14]
  IC50: 22.5 µM (active)

## Cc1ccsc1/C=N/n1c(S)nnc1-c1ccncc1
[4]
  IC50: > 100 µM (inactive)
[5]
  IC50: 2.45 µM (active)

## O=C(Nc1ccc(Cl)cc1Cl)c1cccc(N2C(=O)C=CC2=O)c1
[4]
  IC50: > 100 µM (inactive)
[12]
  CC50: > 40 µM (active)
[5]
  IC50: 13.8 µM (active)
[2]
  AC50: 0.295 µM (active)

## Cc1ccc(C)c(-c2nnc(NC(=O)C3=COCCO3)o2)c1
[15]
  CC50: > 40 µM (active)
[13]
  CC50: 19 µM (active)
[14]
  IC50: 6.12 µM (active)

## Oc1ccc(-c2n[nH]c(=S)[nH]2)cc1
[16]
  IC50: 20.6 µM (active)
[17]
  IC50: 6.95 µM (active)
[4]
  IC50: > 100 µM (inactive)
[5]
  IC50: 4.02 µM (active)

## Cc1cccc(C)c1NC(=O)COC(=O)c1ccc([N+](=O)[O-])o1
[2]
  AC50: 2.57 µM (active)

## CSc1ccc(CNC(=O)c2ccc(NC(=O)C3=CSCCO3)cc2)cc1
[6]
  EC50: 0.0482 µM (active)
